From patent US8895610B1, “Platinum (IV) compounds targeting zinc finger domains” (priority 2007, dated 2014)
Several values for one entry are separate records, joined by “and”; a condition that tells them apart may be missing. Identical values can stand only once. Entries after “also recorded” stand apart in the source; their conditions may differ.

How the values were obtained:
Petaluma strain of FIV = experiment: Plasma viremia by reverse transcription TaqMan PCR in FIV-infected cats; assay type: in vivo, domestic cat; conditions: for Plasma Viremia: cats BR, CF
Description: (§1) Currently available antiretrovirals require daily dosing, often in combination therapy. Two 12^+-year old specific-pathogen-free domestic female cats infected >5 years with the Petaluma strain of FIV were used in this study. The animals were housed individually in a climatized animal facility in accordance with standards, had ad libitum access to fresh water and food, and were sedated with Tiletamine/Zolazepam intramuscularly prior to any procedure. The cats weighed from 3-5 kg each. Three weeks before initiation of the treatment and at scheduled times, samples were collected for hematological and virological analyses. The cats received 9 intravenous doses of 3 mg/kg FX101 over 4.5 weeks (2× weekly).
Viral RNA extracted from plasma using the QIAmp viral RNA kit (QIAGEN), was reverse transcribed and amplified by reverse transcription TaqMan PCR. Reverse transcription and amplification conditions, and minimum detection limits of the assay (100-200 copies/mL plasma) are described elsewhere (Pistello, 2005). This measure represents viral presence in circulation, reflecting potential infectivity and productive synthesis of viral particles.
0.1664 g FX101 was dissolved into 30 mL 15% DMSO/PBS and stirred overnight. This solution was sterile-filtered using a 20-mL syringe fitted with a […] Sarstedt filter. Each dose was administered under anesthesia, a 1.5 mL venous injection using a 2.5 mL syringe fitted with a 22G 1¼-in. needle (latex free). Feline BR weighed 3.2 kg at the start of the experiment and CF weighed 2.8 kg. Each received 8.3 mg drug with each dose, so dosages were 2.6 mg/kg for BR and 3.0 mg/kg for CF.
Table 8 illustrates measures of plasma viremia from the two test cats, “BR” and […] relative to the treatment period, receiving intravenous injections of FX101 twice weekly over four weeks. Each blood sample was taken immediately prior to drug injection for the scheduled dosing, August 23-September 30. This provided two pretreatment samples as baseline measures, 3 samples during treatment, and two post-treatment samples; note the addition of an unscheduled sample October 20. […] Following the last dosage, the first post-treatment results were ambiguous, with one cat experiencing a strong rebound and the other remaining below detection. This difference may be attributable to a uterine infection experienced by cat “BR” at this time—a historically frequent occurrence for this cat. It is well known that lipopolysaccharides (LPS) induce lentiviral replication, and this may therefore be related.

IL-13 = experiment: Feline blood serum immunofluorescent bead analysis: IL-13; assay type: in vivo, cat; conditions: cats BR, CF
Protocol: (§2) Test sera samples from select felines were analyzed using the Rules-Based Medicine (Austin, Tex.) human multi-analyte for 90 measures from a single sample of less than 0.5 mL. The assay uses immunofluorescent beads to simultaneously measure antibody recognition to individually identifiable colored beads, each conjugated with a specific antibody, within a single well plate. Blood samples were drawn preceding (pretreatment) and following (post treatment) one-month FX101 treatment (from felines in Example 6), and are compared with two uninfected control felines. Human cross-reactive antibodies are commonly used for felines, and are relative rather than quantitative measures. Reductions in TNF-alpha and MMP-2 are evident in treated cats; TIMP-1 (Tissue Inhibitor of Metalloproteinases) is not associated with the downregulation of MMP-2. Both MMP-2 and MMP-9, as well as MCP-1, are considered important contributors to the penetration of virally-infected cells across the BBB (Webster, 2006). Additional comments follow the table.

[1] = test system: peripheral CD4+ and CD8+ T-lymphocytes; experiment: Circulating CD4+ and CD8+ T-lymphocytes by flow cytometry; assay type: in vivo, domestic cat
Protocol: Numbers of peripheral CD4^+ and CD8^+ T-lymphocytes in the blood were determined by labeling with mouse monoclonal antibodies to feline CD4^+ (FE1.7B12) and feline CD8^+ (FE1.10E9), obtained from Peter F. Moore, University of California, Davis, Calif. Bound primary antibodies were detected using FITC-conjugated anti-mouse IgG1 (Space-Serotec, Milan, Italy), and the samples were analyzed on a FACScan flow cytometer (Becton Dickinson, San Jose, Calif.). Both a negative (no drug) and positive (integrase inhibitor cocktail) control are included with data from two HK inhibitor-tested felines.

[2] = test system: transfected HeLa and HEK-293 cells; experiment: Viral transcription or infectivity in transfected HeLa and HEK-293 cells; assay type: cell-based
TIMP-1 = experiment: Feline blood serum immunofluorescent bead analysis: TIMP-1; assay type: in vivo, cat; conditions: cats BR, CF
Protocol: as §2

[3] = Clinical observations, clinical chemistry, CBC and urinalysis in FIV cat studies; assay type: in vivo; conditions: 9 intravenous doses of 3 mg/kg over 4.5 weeks; two FIV-infected cats
Description: as §1

p24 Gag protein = experiment: Western blot of p24 Gag protein, pNL4-3-transfected HeLa cells and viral progeny; assay type: cell-based, HIV-1; conditions: increasing concentration
Description: In vitro, this process occurs in the presence of nucleic acids and a cofactor (Campbell, 1999; Campbell, 2001). Immature particles fail to consolidate an outer membrane, emphasizing the critical role of Gag proteins in the assembly process (Didierlaurent, 2008). As virions bud from the host membrane, viral protease cleaves p55 Gag into its final mature components: matrix (p17), capsid (p24), nucleocapsid (p7) and p6, each designated by its apparent molecular weight. […] Effects may extend across the Gag polyprotein and its components, further compounding activities.

Calcitonin = experiment: Feline blood serum immunofluorescent bead analysis: Calcitonin; assay type: in vivo, cat; conditions: cats BR, CF
Protocol: as §2

[4] = test system: HIV-1-transfected HeLa host cells (pNL4-3); experiment: Virus release in HIV-transfected HeLa cells (radiolabel, immunoprecipitation); assay type: cell-based, human; conditions: vs untreated transfected HeLa cells
Description: Briefly, HeLa cells were transfected (calcium phosphate method) with the full-length, infectious HIV-1 molecular clone pNL4-3 to examine single-cycle particle production (Freed, 1994). Transfected cells were metabolically radiolabeled, and cell- and virus-associated proteins were immunoprecipitated and quantified as previously described (Waheed and Freed, 2008). Virus release efficiency was reduced in a concentration-dependent manner with FX101 as compared with untreated controls.

MMP-2 = experiment: Feline blood serum immunofluorescent bead analysis: MMP-2; assay type: in vivo, cat; conditions: for MMP-2, relative blood serum measure: cats BR, CF
Protocol: as §2

[5] = post treatment (one-month FX101 treatment)

SMILES: [NH2][Pt]([NH2])([Cl])([Cl])([Cl])[N+](=O)[O-] [FX101, nitrotrichlorodiamminoPt(IV)]
- plasma viremia after treatment (in words) (Petaluma strain of FIV; 4 weeks to 9 months past the final dosage, no additional therapies): significantly lower viremia as compared with baseline measures; also recorded: undetectable plasma viremia
- Plasma Viremia (Petaluma strain of FIV; Aug. 2, 2007 pretreatment): 2582 Viral RNA Copies/mL Plasma and 4282 Viral RNA Copies/mL Plasma
- Plasma Viremia (Petaluma strain of FIV; Aug. 23, 2007 start of treatment period, blood collected prior to dosing): 8841 Viral RNA Copies/mL Plasma and 6974 Viral RNA Copies/mL Plasma
- Plasma Viremia (Petaluma strain of FIV; Aug. 30, 2007 treatment period, i.v. twice weekly): 1300 Viral RNA Copies/mL Plasma and 1249 Viral RNA Copies/mL Plasma
- Plasma Viremia (Petaluma strain of FIV; Feb. 1, 2006 pretreatment): 6557 Viral RNA Copies/mL Plasma and 3864 Viral RNA Copies/mL Plasma
- Plasma Viremia (Petaluma strain of FIV; Jun. 12, 2008 (+38 wk) post treatment): <200 Viral RNA Copies/mL Plasma
- Plasma Viremia (Petaluma strain of FIV; Mar. 1, 2006 pretreatment): 3072 Viral RNA Copies/mL Plasma and 2819 Viral RNA Copies/mL Plasma
- Plasma Viremia (Petaluma strain of FIV; Mar. 27, 2008 (+27 wk) post treatment): <200 Viral RNA Copies/mL Plasma
- Plasma Viremia (Petaluma strain of FIV; Oct. 20, 2007 (+4 wk) post treatment): 898 Viral RNA Copies/mL Plasma and 1057 Viral RNA Copies/mL Plasma
- Plasma Viremia (Petaluma strain of FIV; Sep. 4, 2007 treatment period, i.v. twice weekly): <100 Viral RNA Copies/mL Plasma
- Plasma Viremia (Petaluma strain of FIV; Sep. 20, 2007 treatment period, i.v. twice weekly): <100 Viral RNA Copies/mL Plasma
- plasma viremia during treatment (in words) (Petaluma strain of FIV; both cats, over two weeks of twice weekly i.v. injections): significant reduction in plasma viremia
- IL-13, relative blood serum measure (IL-13; [5]): 27 pg/mL and 34 pg/mL
- IL-13, relative blood serum measure (IL-13; pretreatment): 15 pg/mL and 12 pg/mL
- Relative CD4+/CD8+ T-Lymphocyte Counts ([1]; Aug. 2, 2007 pretreatment period): 1.1 and 1.3
- Relative CD4+/CD8+ T-Lymphocyte Counts ([1]; Aug. 23, 2007 start of treatment period): 1.2
- Relative CD4+/CD8+ T-Lymphocyte Counts ([1]; Aug. 30, 2007 treatment period): 1.5 and 1.3
- Relative CD4+/CD8+ T-Lymphocyte Counts ([1]; Dec. 1, 2005 pretreatment period): 1.5 and 2.0
- Relative CD4+/CD8+ T-Lymphocyte Counts ([1]; Feb. 1, 2006 pretreatment period): 0.82 and 1.1
- Relative CD4+/CD8+ T-Lymphocyte Counts ([1]; Jan. 1, 2006 pretreatment period): 1.6 and 0.92
- Relative CD4+/CD8+ T-Lymphocyte Counts ([1]; Mar. 1, 2006 pretreatment period): 0.84 and 1.2
- Relative CD4+/CD8+ T-Lymphocyte Counts ([1]; May 8, 2008 (+33 wk) post treatment): 1.8 and 1.6
- Relative CD4+/CD8+ T-Lymphocyte Counts ([1]; Nov. 1, 2005 pretreatment period): 0.86 and 0.85
- Relative CD4+/CD8+ T-Lymphocyte Counts ([1]; Oct. 4, 2007 (+2 wk) post treatment): 1.9 and 1.4
- Relative CD4+/CD8+ T-Lymphocyte Counts ([1]; Sep. 4, 2007 treatment period): 1.5 and 1.6
- final CD4+/CD8+ ratios compared with controls ([1]; conclusion of the study, both tested felines): remained higher
- direct inhibition of viral transcription or infectivity [2]: did not act as a direct inhibitor of viral transcription or infectivity
- TIMP-1, relative blood serum measure (TIMP-1; [5]): 9.0 ng/mL and 7.3 ng/mL
- TIMP-1, relative blood serum measure (TIMP-1; pretreatment): 6.5 ng/mL and 9.8 ng/mL
- local reactions or adverse clinical indicators [3]: No local reactions or adverse clinical indicators
- mature p24 content in host cells and viral progeny (Western blot) (p24 Gag protein): absence of mature p24
- Calcitonin, relative blood serum measure (Calcitonin; [5]): 2.9 pg/mL
- Calcitonin, relative blood serum measure (Calcitonin; pretreatment): 7.6 pg/mL and 11 pg/mL
- p24 Gag proteins [4]: greatly reduced
- HIV-1 virus release efficiency ([4]; concentration-dependent): greatly reduced
- MMP-2, relative blood serum measure (MMP-2; [5]): 2070 ng/mL and 2120 ng/mL
- MMP-2 in serum of treated cats (in words) (MMP-2; post vs pre one-month treatment): Reductions
- MMP-2, relative blood serum measure (MMP-2; pretreatment): 3000 ng/mL and 3150 ng/mL
